From patent US10328077B2 (CELGENE CORPORATION, priority 2016, dated 2019)

Tests used:
[1] = biological target: CYP3A4 (Homo sapiens (Human), UniProt P08684); assay: CYP reaction phenotyping with recombinant human CYP enzymes; format: in vitro ADME
Text: The role of non-CYP enzymes in the metabolism of Compound A is yet to be ascertained.

[2] = Pharmacokinetics after IV and oral dose, dogs; format: in vivo, Beagle dogs; conditions: dog, plasma
[3] = in vivo; conditions: Beagle, dog, po; for AUC(0-t): AUC0-96
[4] = 4-week toxicity study (no recovery period) in dogs (incl. TK)
[5] = biological target: CYP2D6 (Homo sapiens (Human), UniProt P10635); assay: CYP inhibition in pooled human liver microsomes, CYP2D6; format: in vitro ADME; conditions: up to 50 μM
[6] = test system: Salmonella typhimurium TA98 and TA100 strains; assay: Bacterial reverse mutation assay; conditions: up to 500 μg/mL, presence and absence of S9
[7] = test system: LU1480 SCLC patient-derived xenograft; assay: LU1480 HuPrime SCLC PDX model; format: in vivo, mice
[8] = Pharmacokinetics after IV and oral dose, rats; format: in vivo, Sprague Dawley rats; conditions: for half-life: read-out: t1/2, z (converted)
[9] = test system: GA0087 gastric NEC patient-derived xenograft; format: in vivo
[10] = Plasma protein binding, human
[11] = Beagle, male, single IV dose 1 mg
[12] = Beagle, male, single oral dose 1 mg base/kg
[13] = Beagle, male, single oral dose 3 mg base/kg
[14] = Beagle, male, single oral dose 6 mg base/kg
[15] = Sprague Dawley, plasma, rat, female, single IV dose 5 mg
[16] = Sprague Dawley, plasma, rat, female, single oral dose 5 mg base/kg
[17] = Sprague Dawley, plasma, rat, female, single oral dose 15 mg base/kg
[18] = Sprague Dawley, plasma, rat, female, single oral dose 50 mg base/kg

Sequence of CYP3A4 (P08684 whole entry): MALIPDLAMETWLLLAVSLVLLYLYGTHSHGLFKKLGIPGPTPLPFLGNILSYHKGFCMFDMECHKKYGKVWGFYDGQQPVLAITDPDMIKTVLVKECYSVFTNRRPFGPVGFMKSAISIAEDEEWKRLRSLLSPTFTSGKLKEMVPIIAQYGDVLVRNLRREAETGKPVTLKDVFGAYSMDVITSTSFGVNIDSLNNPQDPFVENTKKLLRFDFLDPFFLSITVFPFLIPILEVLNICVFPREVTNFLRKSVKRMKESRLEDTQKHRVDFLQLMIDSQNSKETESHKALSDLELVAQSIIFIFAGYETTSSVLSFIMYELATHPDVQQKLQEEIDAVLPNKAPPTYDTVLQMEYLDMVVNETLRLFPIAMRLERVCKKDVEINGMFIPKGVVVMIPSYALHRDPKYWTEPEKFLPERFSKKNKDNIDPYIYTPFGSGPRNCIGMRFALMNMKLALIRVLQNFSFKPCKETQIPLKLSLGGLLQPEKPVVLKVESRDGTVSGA
Sequence of CYP2D6 (P10635 whole entry): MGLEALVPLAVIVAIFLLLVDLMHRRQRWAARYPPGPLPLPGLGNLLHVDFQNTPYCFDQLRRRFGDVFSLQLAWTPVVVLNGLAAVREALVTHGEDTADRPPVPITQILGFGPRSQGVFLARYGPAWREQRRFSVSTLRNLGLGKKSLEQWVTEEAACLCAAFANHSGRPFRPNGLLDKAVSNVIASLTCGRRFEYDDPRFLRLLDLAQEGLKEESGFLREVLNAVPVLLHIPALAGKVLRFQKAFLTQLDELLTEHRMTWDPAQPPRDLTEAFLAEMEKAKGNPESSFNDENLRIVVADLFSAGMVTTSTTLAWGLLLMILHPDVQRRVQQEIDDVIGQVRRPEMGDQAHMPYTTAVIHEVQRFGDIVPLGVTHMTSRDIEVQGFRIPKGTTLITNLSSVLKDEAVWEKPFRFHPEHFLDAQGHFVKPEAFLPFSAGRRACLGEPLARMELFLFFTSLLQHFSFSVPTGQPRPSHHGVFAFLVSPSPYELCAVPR

Q: Which “role of CYP3A4 in metabolism” value [1] does the source give for `COc1ccc(-c2c(-c3ccc(C#N)c(F)c3)nc(N3CCC(N)CC3)n(C)c2=O)cc1F` [Compound A, 4-[2-(4-amino-piperidin-1-yl)-5-(3-fluoro-4-methoxy-phenyl)-1-methyl-6-oxo-1,6-dihydro-pyrimidin-4-yl]-2-fluoro-benzonitrile] here?
A: predominantly responsible for the oxidative metabolism

Q: What about the half-life ([2]; Beagle (dogs), IV, non-rodents (dogs, monkeys), read-out: half-life) of the same compound?
A: 12 to 20 h

Q: What about the bioavailability ([2]; Beagle, po, dogs and monkeys, read-out: oral bioavailability) of the same compound?
A: 82 to 100%

Q: And the AUC(0-inf) [2, 11]?
A: 1940 ng·h/mL

Q: What about the AUC(0-t) [2, 11] of the same compound?
A: 1300 ng·h/mL

Q: What about the clearance [2, 11] of the same compound?
A: 9 mL/min/kg

Q: And the Vd ([2]; Beagle, male, single IV dose 1 mg, mean (SD), read-out: Vss)?
A: 11.1 L/kg

Q: What about the half-life ([2]; Beagle, male, single IV dose 1 mg, read-out: t1/2, z (converted)) of the same compound?
A: 15.5 h

Q: And the AUC(0-t) [2, 12]?
A: 1090 ng·h/mL

Q: And the Cmax [2, 12]?
A: 69 ng/mL

Q: And the Tmax [2, 12]?
A: 2 h

Q: And the bioavailability ([2]; Beagle, male, single oral dose 1 mg base/kg, read-out: % F)?
A: 84%

Q: And the half-life ([2]; Beagle, male, single oral dose 1 mg base/kg, read-out: t1/2, z (converted))?
A: 15 h

Q: What about the AUC(0-t) [2, 13] of the same compound?
A: 3790 ng·h/mL

Q: And the Cmax [2, 13]?
A: 298 ng/mL

Q: What about the Tmax [2, 13] of the same compound?
A: 1 h

Q: What about the bioavailability ([2]; Beagle, male, single oral dose 3 mg base/kg, read-out: % F) of the same compound?
A: 100%

Q: And the half-life ([2]; Beagle, male, single oral dose 3 mg base/kg, read-out: t1/2, z (converted))?
A: 19.4 h

Q: And the AUC(0-t) [2, 14]?
A: 8790 ng·h/mL

Q: And the Cmax [2, 14]?
A: 627 ng/mL

Q: What about the Tmax [2, 14] of the same compound?
A: 1 h

Q: What about the bioavailability ([2]; Beagle, male, single oral dose 6 mg base/kg, read-out: % F) of the same compound?
A: 100%

Q: And the half-life ([2]; Beagle, male, single oral dose 6 mg base/kg, read-out: t1/2, z (converted))?
A: 17.8 h

Q: What about the AUC(0-t) ([3]; both, 0.125 mg/kg) of the same compound?
A: 127 ng·h/mL

Q: What about the Cmax ([3]; both, 0.125 mg/kg, Cmax) of the same compound?
A: 5.26 ng/mL

Q: What about the Cmax ([3]; both, 0.125 mg/kg, combined Day 15 mean Cmax) of the same compound?
A: 5.26 ng/mL

Q: And the Cmax ([3]; both, 0.25 mg/kg, combined Day 15 mean Cmax)?
A: 11 ng/mL

Q: And the Cmax ([3]; both, 0.5 mg/kg, combined Day 15 mean Cmax)?
A: 22 ng/mL

Q: What about the AUC(0-t) ([3]; both) of the same compound?
A: 120 ng·h/mL

Q: And the Cmax ([3]; both, Cmax)?
A: 5.79 ng/mL

Q: What about the AUC(0-t) ([3]; female, 0.25 mg/kg) of the same compound?
A: 343 ng·h/mL

Q: And the Cmax ([3]; female, 0.25 mg/kg, Cmax)?
A: 12.1 ng/mL

Q: And the AUC(0-t) ([3]; female, 0.5 mg/kg)?
A: 729 ng·h/mL

Q: And the Cmax ([3]; female, 0.5 mg/kg, Cmax)?
A: 26.6 ng/mL

Q: And the AUC(0-t) ([3]; female)?
A: 141 ng·h/mL

Q: What about the AUC(0-t) ([3]; male, 0.25 mg/kg) of the same compound?
A: 335 ng·h/mL

Q: What about the Cmax ([3]; male, 0.25 mg/kg, Cmax) of the same compound?
A: 11.9 ng/mL

Q: And the AUC(0-t) ([3]; male, 0.5 mg/kg)?
A: 762 ng·h/mL

Q: What about the Cmax ([3]; male, 0.5 mg/kg, Cmax) of the same compound?
A: 24 ng/mL

Q: And the AUC(0-t) ([3]; male)?
A: 107 ng·h/mL

Q: What about the HNSTD ([4]; Q2W administration) of the same compound?
A: 0.5 mg base/kg/dose

Q: What about the NOAEL ([4]; Q2W administration) of the same compound?
A: < 0.5 mg base/kg/dose

Q: And the NOAEL ([4]; QW administration)?
A: 0.125 mg base/kg/dose

Q: What about the HNSTD ([4]; QW dosing) of the same compound?
A: 0.25 mg base/kg/dose

Q: What about the “direct inhibition of CYP2D6” value [5] of the same compound?
A: little to no direct inhibitory effect

Q: What about the mutagenicity [6] of the same compound?
A: negative for mutagenicity

Q: What about the “Median Tumor Volume Day 21” value ([7]; 5 mg base/kg PO QDx21) of the same compound?
A: 490.1 mm^3

Q: And the “Median Tumor Volume Diff. (Day 21 - Day 1)” value ([7]; 5 mg base/kg PO QDx21)?
A: 400.6 mm^3

Q: And the “Median Tumor Volume Day 21” value ([7]; 10 mg base/kg PO QDx21)?
A: 321.4 mm^3

Q: And the “Median Tumor Volume Diff. (Day 21 - Day 1)” value ([7]; 10 mg base/kg PO QDx21)?
A: 234.3 mm^3

Q: And the “% TGI” value ([7]; 10 mg base/kg PO QDx21, Day 21)?
A: 72%

Q: What about the TGI ([7]; 10 mg base/kg oral for 21 days) of the same compound?
A: 72%

Q: What about the systemic clearance ([8]; IV, rats (greater than liver blood flow)) of the same compound?
A: high

Q: And the AUC(0-inf) [8, 15]?
A: 733 ng·h/mL

Q: What about the AUC(0-t) [8, 15] of the same compound?
A: 680 ng·h/mL

Q: And the clearance [8, 15]?
A: 115 mL/min/kg

Q: And the Vd ([8]; Sprague Dawley, plasma, rat, female, single IV dose 5 mg, mean (SD), read-out: Vss)?
A: 26.2 L/kg

Q: What about the half-life [8, 15] of the same compound?
A: 3.6 h

Q: What about the AUC(0-t) [8, 16] of the same compound?
A: 222 ng·h/mL

Q: And the Cmax [8, 16]?
A: 47 ng/mL

Q: And the Tmax [8, 16]?
A: 2 h

Q: And the bioavailability [8, 16]?
A: 33%

Q: What about the half-life [8, 16] of the same compound?
A: 3 h

Q: And the AUC(0-t) [8, 17]?
A: 570 ng·h/mL

Q: What about the Cmax [8, 17] of the same compound?
A: 123 ng/mL

Q: And the Tmax [8, 17]?
A: 2 h

Q: And the bioavailability [8, 17]?
A: 28%

Q: What about the half-life [8, 17] of the same compound?
A: 2.9 h

Q: And the AUC(0-t) [8, 18]?
A: 4650 ng·h/mL

Q: What about the Cmax [8, 18] of the same compound?
A: 621 ng/mL

Q: And the Tmax [8, 18]?
A: 6 h

Q: And the bioavailability [8, 18]?
A: 74%

Q: What about the half-life [8, 18] of the same compound?
A: 3 h

Q: What about the “Median Tumor Volume Day 53” value ([9]; 5 mg/kg PO QD x 53) of the same compound?
A: 673.2 mm^3

Q: What about the “Median Tumor Volume Diff (Day 53 - Day 0)” value ([9]; 5 mg/kg PO QD x 53) of the same compound?
A: 863.3 mm^3

Q: And the tolerability ([9]; 1.5 and 5 mg/kg oral QD)?
A: acceptably tolerated

Q: What about the “bound to plasma proteins” value [10] of the same compound?
A: 83%
